Experiments:
[1] = system: zymosan-stimulated footpad edema; assay: Mouse zymosan-stimulated footpad edema reaction; assay type: in vivo; settings: ICR female mice, oral 0.1 to 500 mg/kg, compared with positive control group
How it was run: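 Female ICR mice (6–7 weeks, n=8) dosed orally at 0.1 to 500 mg/kg in 0.5% methylcellulose; 1 h later zymosan (1 mg/ml, 0.02 ml) injected s.c. into right hind footpad. Edema volume at 1 and 2 h gave AUC to 2 h; suppression (%) calculated against positive control AUC.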

[2] = system: PGD2 production from IgE-stimulated RBL-2H3 cells; assay: Suppressing action on PGD2 production from IgE-stimulated RBL-2H3 cells; assay type: cell-based; settings: Rattus norvegicus, 10 min, IgE/DNP-BSA stimulated RBL-2H3 cells, read-out: PGD2 production suppression ratio
How it was run: (§1)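 Rat RBL-2H3 mastocytoma cells, sensitized 30 min with anti-DNP-BSA IgE, then given test compound in 0.5% FBS medium and stimulated with DNP-BSA (100 ng/ml final). Supernatant PGD2 and LTB4 were measured by EIA after 10 min. Suppression ratio is calculated against unstimulated and stimulant-only controls.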

[3] = system: IgE-stimulated footpad edema; assay: Mouse IgE-stimulated footpad edema reaction; assay type: in vivo; settings: C57BL/6 male mice, oral 0.1 to 500 mg/kg, compared with positive control group
How it was run: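 Male C57BL/6 mice (9–11 weeks, n=5) sensitised one day earlier by footpad injection of anti-DNP-BSA IgE serum; compound given orally in 0.5% methylcellulose at 0.1 to 500 mg/kg, then DNP-BSA i.v. 2 h later. Footpad swelling measured at 10–30 min, expressed as AUC and % suppression versus vehicle control.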

[4] = system: PGE2 production from IL-1β-stimulated MG-63 cells; assay: Suppressing action on PGE2 production from IL-1β-stimulated MG-63 cells; assay type: cell-based; settings: Homo sapiens, IL-1β 1 ng/ml, 18 hours, read-out: PGE2 production suppression ratio
How it was run: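 Human osteosarcoma MG-63 cells (2×10^4/well) switched to 0.5% FBS medium, treated with compound, then stimulated with IL-1β at 1 ng/ml final for 18 h. Supernatant PGE2 measured by EIA; suppression ratio calculated against stimulated and unstimulated wells.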

[5] = system: LTB4 production from IgE-stimulated RBL-2H3 cells; assay: Suppressing action on LTB4 production from IgE-stimulated RBL-2H3 cells; assay type: cell-based; settings: Rattus norvegicus, 10 min, IgE/DNP-BSA stimulated RBL-2H3 cells, read-out: LTB4 production suppression ratio
How it was run: as §1

| Structure (SMILES) | suppression of footpad edema caused by zymosan [1] | inhibition at 0.4 µM [2] [%] | suppression of footpad edema caused by IgE stimulation [3] | inhibition at 0.4 µM [4] [%] | inhibition at 0.4 µM [5] [%] |
| --- | --- | --- | --- | --- | --- |
| Nc1ccc2cc(-c3cc(CCC(=O)O)ccc3OCC3CCCC3)ccc2c1 [Compound 012, 3-[3-(6-aminonaphthalen-2-yl)-4-cyclopentylmethyloxyphenyl]propionic acid] | suppressed footpad edema | ≥ 50 | suppressed the footpad edema | ≥ 50 | ≥ 50 |
| O=C(O)CCc1ccc(OCC2CCCC2)c(-c2ccc3sccc3c2)c1 [Compound 281, 3-[3-(benzo[b]thiophen-5-yl)-4-cyclopentylmethyloxyphenyl]propionic acid] | suppressed footpad edema | ≥ 50 | suppressed the footpad edema | ≥ 50 | ≥ 50 |
| O=C(O)CCc1ccc(OCCCc2ccccc2)c(-c2ccc3[nH]ccc3c2)c1 [Compound 220, 3-[3-(1H-indol-5-yl)-4-(3-phenylpropyloxy)phenyl]propionic acid] | suppressed footpad edema | ≥ 50 | suppressed the footpad edema | ≥ 50 | ≥ 50 |
| CCn1ccc2cc(-c3cc(CCC(=O)O)ccc3OCC3CCCC3)ccc21 [Compound 236, 3-[4-cyclopentylmethyloxy-3-(1-ethyl-1H-indol-5-yl)phenyl]propionic acid] | suppressed footpad edema | ≥ 50 | suppressed the footpad edema | ≥ 50 | ≥ 50 |
| O=C(O)CCc1cc(F)c(OCC2CCCC2)c(-c2ccc3[nH]ccc3c2)c1 [Compound 261, 3-[4-cyclopentylmethyloxy-3-fluoro-5-(1H-indol-5-yl)phenyl]propionic acid] | suppressed footpad edema | ≥ 50 | suppressed the footpad edema | ≥ 50 | ≥ 50 |
| O=C(O)CCc1ccc(OCC2CCCCC2)c(-c2cnc3ccccc3c2)c1 [Compound 317, 3-[4-cyclohexylmethyloxy-3-(quinolin-3-yl)phenyl]propionic acid] | suppressed footpad edema | ≥ 50 | suppressed the footpad edema | ≥ 50 | ≥ 50 |
| O=C(O)CCc1ccc(OCCc2ccccc2F)c(-c2ccc3ccccc3c2)c1 [Compound 053, 3-{4-[2-(2-fluorophenyl)ethyloxy]-3-(naphthalen-2-yl)phenyl}propionic acid] | suppressed footpad edema | ≥ 50 | suppressed the footpad edema | ≥ 50 | ≥ 50 |
| CCCCOc1ccc(COc2ccc(CCC(=O)O)cc2-c2ccc3[nH]ccc3c2)cc1 [Compound 186, 3-{4-[4-(butyloxy)phenylmethyloxy]-3-(1H-indol-5-yl)phenyl}propionic acid] | suppressed footpad edema | ≥ 50 | suppressed the footpad edema | ≥ 50 | ≥ 50 |
| O=C(O)CCc1ccc(OCC2CC3CCC2C3)c(-c2ccc3[nH]ccc3c2)c1 (stereo not drawn) [Compound 177, 3-[4-(bicyclo[2,2,1]hept-2-ylmethyloxy)-3-(1H-indol-5-yl)phenyl]propionic acid] | suppressed footpad edema | ≥ 50 | suppressed the footpad edema | ≥ 50 | ≥ 50 |

Source: US6867320B2, “Substituted phenylalkanoic acid derivatives and use thereof” (Asahi Kasei Pharma Corporation, priority 2002, dated 2005)
